In brackets after ≈: the same amount, converted by molar mass. Several values for one entry are separate records, joined by “and”; a condition that tells them apart may be missing. Equal values may be shown once. Read-outs that look alike come from different tables or passages of the source.
Tests used:
[1] = tested on: HCT116 cells; assay: MTT viability of HCT116 cells in basal conditions; assay type: cell-based, human; settings: for IC50: Homo sapiens
Description: (§1) HCT116 cell line (ATCC® CCL-247™) was cultured in DMEM (Euroclone) supplemented with 10% (v/v) heat-inactivated foetal bovine serum and 1.2% (v/v) penicillin G/streptomycin in 75 cm^2 tissue culture flask (n=5 individual culture flasks for each condition) as previously reported with or without serotonin treatment.
(§2) In the same condition, the kynurenic acid (KA) extracellular level was determined through a validated high performance liquid chromatography (HPLC)-fluorimetric method. To assess the cytotoxicity of synthesised compounds (VIa–o), a viability assay was performed on 96 microwell plates, using 3-(4,5-dimethylthiazol-2-yl)-2,5-diphenyltetrazolium bromide (MTT) test. Cells were incubated with compounds (10 µg/mL) for 24 h. An aliquot of 10 µL of MTT (5 mg/mL) was added to each well and incubated for 3 h. The viability of HCT116 cell line was evaluated both in basal conditions and after challenging with serotonin (5-HT) at 1 ng/mL. The anti-proliferative effects were compared to that induced by daunorubicin (0.1–20 µg/mL), used as reference drug.
Considering the effects induced by all compounds on HCT116 viability and KA production, compounds VIc, VIe and VIk were further assayed in order to deepen our knowledge about their anti-proliferative effects, in basal conditions. Specifically, HCT116 cells were stimulated with the aforementioned compounds, in a wider concentration range (0.1–20 µg/mL), with respect to the initial test. Additionally, the anti-proliferative effects induced by these compounds were compared with that of daunorubicin, used as anti-tumoral reference drug in the same concentration range.

[2] = tested on: HCT116 cells; assay: Wound healing paradigm (spontaneous migration of HCT116 cells); assay type: cell-based, human; settings: compounds at their IC50 (VIe 3.09 µg/mL, VIk 2.73 µg/mL), 48 h after lesion of cell monolayer
Description: The detailed protocol related to wound healing experimental model was described in our previous article.
Finally, considering their potencies in reducing HCT116 cell viability, compounds VIe and VIk were further studied in order to evaluate their effects on the spontaneous migration of HCT116 cells, through the wound healing paradigm. In this experiment, HCT116 cells were treated with compounds VIe and VIk at their respective IC50 values. The spontaneous migration of HCT116 cells was monitored in the 48 h following the experimental lesion of cell monolayer. The null effects on sponstaneous migration (Figure 6) rule out any involvement of the tested compounds in altering the invasion capacity of human colon cancer cells.

[3] = tested on: kynurenic acid (KA) release from colon cancer HCT116 cells; assay: Extracellular kynurenic acid (KA) level of 5-HT-stimulated HCT116 cells (HPLC-fluorimetric); assay type: cell-based, human; settings: for Effect on 5-HT-induced KA depletion: compounds 10 µg/mL, 5-HT 1 ng/mL, vs 5-HT group
Description: as §1, §2
Furthermore, compounds were assayed for evaluating modulatory effects on the extracellular level of KA, one of the two main kynurenine metabolites. Kynurenic acid was reported to be produced in multiple tissues, including brain and peripheral organs, although pharmacokinetic studies excluded any possibility of the peripheral pool to cross blood-brain barrier. In the brain, the kynurenine-derived kynurenic acid was described as a reliable marker of neuroprotection[28]^,[29], whereas it seems to be involved in inflammatory response at the peripheral level. Kynurenic acid was also described as an anti-proliferative factor towards colon, renal, and glioma cells. Specifically, this marker was considered as a potential chemopreventive agent against colon cancer[32]^,[33]. […] They were able in potentiating 5-HT-induced KA depletion, as well.

[4] = HCT-116, basal conditions, concentration range 0.1–20 µg/mL, MTT test, read-out: IC50 (HCT116 cell viability)

melting point	SMILES	further results
189 °C	COc1ccc(-c2ccc(=O)n(CC(=O)NN=Cc3ccccc3Br)n2)cc1F [VIk, N’-(2-bromobenzylidene)-2–(3-(3-fluoro-4-methoxyphenyl)-6-oxopyridazin-1(6H)-yl)acetohydrazide]	IC50 [1, 4]: 2.73 µg/mL (≈ 5.94 µM); Effect on spontaneous migration of HCT116 cells [2]: null effects
210 °C	COc1ccc(-c2ccc(=O)n(CC(=O)NN=Cc3ccccc3C)n2)cc1F [VIe, N’-(2-methylbenzylidene)-2–(3-(3-fluoro-4-methoxyphenyl)-6-oxopyridazin-1(6H)-yl)acetohydrazide]	IC50 [1, 4]: 3.09 µg/mL (≈ 7.83 µM); Effect on spontaneous migration of HCT116 cells [2]: null effects
214 °C	COc1ccc(-c2ccc(=O)n(CC(=O)NN=Cc3ccccc3OC)n2)cc1F [VIf, N’-(2-methoxybenzylidene)-2–(3-(3-fluoro-4-methoxyphenyl)-6-oxopyridazin-1(6H)-yl)acetohydrazide]	
132 °C	COc1ccc(-c2ccc(=O)n(CC(=O)NN=Cc3ccccc3)n2)cc1F [VIa, N’-benzylidene-2-(3-(3-fluoro-4-methoxyphenyl)-6-oxopyridazin-1(6H)-yl)acetohydrazide]	Effect on 5-HT-induced KA depletion [3]: failed to prevent the inhibition of KA level
207 °C	COc1ccc(C=NNC(=O)Cn2nc(-c3ccc(OC)c(F)c3)ccc2=O)cc1 [VIh, N’-(4-methoxybenzylidene)-2–(3-(3-fluoro-4-methoxyphenyl)-6-oxopyridazin-1(6H)-yl)acetohydrazide]	
265 °C	COc1ccc(-c2ccc(=O)n(CC(=O)NN=Cc3ccc([N+](=O)[O-])cc3)n2)cc1F [VIi, N’-(4-nitrobenzylidene)-2–(3-(3-fluoro-4-methoxyphenyl)-6-oxopyridazin-1(6H)-yl)acetohydrazide]	
251 °C	COc1ccc(-c2ccc(=O)n(CC(=O)NN=Cc3ccc(O)cc3)n2)cc1F [VIn, N’-(4-hydroxybenzylidene)-2–(3-(3-fluoro-4-methoxyphenyl)-6-oxopyridazin-1(6H)-yl)acetohydrazide]	
238 °C	COc1ccc(-c2ccc(=O)n(CC(=O)NN=Cc3ccc(F)cc3)n2)cc1F [VIb, N’-(4-fluorobenzylidene)-2–(3-(3-fluoro-4-methoxyphenyl)-6-oxopyridazin-1(6H)-yl)acetohydrazide]	Effect on 5-HT-induced KA depletion [3]: failed to prevent the inhibition of KA level
	COc1cccc2c1C(=O)c1c(O)c3c(c(O)c1C2=O)C[C@@](O)(C(C)=O)C[C@@H]3O[C@H]1C[C@H](N)[C@H](O)[C@H](C)O1 [daunorubicin, reference compound]	IC50 ([1]; HCT-116, read-out: IC50 (HCT116 cell viability)): 1.39 µg/mL (≈ 2.63 µM)
229 °C	COc1ccc(-c2ccc(=O)n(CC(=O)NN=Cc3ccc(Cl)cc3Cl)n2)cc1F [VIo, N’-(2,4-dichlorobenzylidene)-2–(3-(3-fluoro-4-methoxyphenyl)-6-oxopyridazin-1(6H)-yl)acetohydrazide]	
164 °C	COc1ccc(-c2ccc(=O)n(CC(=O)NN=Cc3ccc(C(C)C)cc3)n2)cc1F [VIj, N’-(4-isopropylbenzylidene)-2–(3-(3-fluoro-4-methoxyphenyl)-6-oxopyridazin-1(6H)-yl)acetohydrazide]	
256 °C	COc1ccc(-c2ccc(=O)n(CC(=O)NN=Cc3ccc(Br)cc3)n2)cc1F [VIm, N’-(4-bromobenzylidene)-2–(3-(3-fluoro-4-methoxyphenyl)-6-oxopyridazin-1(6H)-yl)acetohydrazide]	
	NCCc1c[nH]c2ccc(O)cc12 [Compound 5-HT, serotonin, reference compound]	Effect of 5-HT on HCT116 cell viability ([1]; 5-HT 10 pg/mL – 1 µg/mL, MTT test): increased in a concentration-dependent manner
222 °C and 224 °C	COc1ccc(-c2ccc(=O)n(CC(=O)NN=Cc3ccccc3F)n2)cc1F [VId, N’-(2-fluorobenzylidene)-2–(3-(3-fluoro-4-methoxyphenyl)-6-oxopyridazin-1(6H)-yl)acetohydrazide]	
220 °C	COc1ccc(-c2ccc(=O)n(CC(=O)NN=Cc3ccc(C)cc3)n2)cc1F [VIg, N’-(4-methylbenzylidene)-2–(3-(3-fluoro-4-methoxyphenyl)-6-oxopyridazin-1(6H)-yl)acetohydrazide]	
252 °C	COc1ccc(-c2ccc(=O)n(CC(=O)NN=Cc3ccc(C(F)(F)F)cc3)n2)cc1F [VIc, N’-(4-trifluoromethylbenzylidene)-2–(3-(3-fluoro-4-methoxyphenyl)-6-oxopyridazin-1(6H)-yl)acetohydrazide]	KA level compared to basal condition (CTR group) ([3]; compound 10 µg/mL, 5-HT-stimulated HCT116 cells): even higher compared to basal condition; Effect on 5-HT-induced KA depletion [3]: able to blunt 5-HT-induced KA depletion; IC50 [1, 4]: 15 µg/mL (≈ 33.5 µM); IC50 fold higher compared to daunorubicin ([1]; basal conditions, HCT116 viability): at least 10 fold

From article PMC7191905, “Synthesis and biological evaluation of new 3(2H)-pyridazinone derivatives as non-toxic anti-proliferative compounds against human colon carcinoma HCT116 cells” (Journal of Enzyme Inhibition and Medicinal Chemistry, 2020)
